Key:
Test in all cases: relative viability (nuclei count vs DMSO), 5 days (fraction); higher = more cells survive
NCI-H1666 = test system: NCI-H1666
In short: (§1)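 Relative viability equals treated-well nuclei counts divided by vehicle-well nuclei counts. Counts came from 4× images of lung cancer cell lines grown in 1536-well plates for 5 days after pin-tool dosing on the day after seeding. Dosing used one drug alone or a fixed anchor-drug dose plus five library-drug doses (not always all listed) in √10 steps, and values are medians of duplicate plates.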

NCI-H1734 = test system: NCI-H1734
In short: as §1

SW 900 = test system: SW 900
In short: as §1

LOU-NH91 = test system: LOU-NH91
In short: as §1

NCI-H1944 = test system: NCI-H1944
In short: as §1

SK-MES-1 = test system: SK-MES-1
In short: as §1

NCI-H23 = test system: NCI-H23
In short: as §1

NCI-H1755 = test system: NCI-H1755
In short: as §1

EKVX = test system: EKVX
In short: as §1

HCC-366 = test system: HCC-366
In short: as §1

PC-3 [JPC-3] = test system: PC-3 [JPC-3]
In short: as §1

COc1cc(N2CCC(C(N)=O)CC2)ccc1Nc1nc(N)c(Cl)c(Nc2ccccc2S(=O)(=O)C(C)C)n1 [HG-5-88-01] + Cc1cc(Nc2cc(N3CCN(C)CC3)nc(Sc3ccc(NC(=O)C4CC4)cc3)n2)n[nH]1 [Tozasertib] (partner 0.1 µM)
relative viability (NCI-H1666; first compound 0.04 µM): 0.577
relative viability (NCI-H1666; first compound 0.1265 µM): 0.603
relative viability (NCI-H1666; first compound 0.4 µM): 0.556
relative viability (NCI-H1666; first compound 1.265 µM): 0.498
relative viability (NCI-H1666; first compound 4 µM): 0.346
relative viability (NCI-H1734; first compound 0.04 µM): 0.267
relative viability (NCI-H1734; first compound 0.1265 µM): 0.235
relative viability (NCI-H1734; first compound 0.4 µM): 0.225
relative viability (NCI-H1734; first compound 1.265 µM): 0.243
relative viability (NCI-H1734; first compound 4 µM): 0.27
relative viability (SW 900; first compound 0.04 µM): 0.533
relative viability (SW 900; first compound 0.1265 µM): 0.656
relative viability (SW 900; first compound 0.4 µM): 0.652
relative viability (SW 900; first compound 1.265 µM): 0.417
relative viability (SW 900; first compound 4 µM): 0.268
relative viability (LOU-NH91; first compound 0.04 µM): 0.657
relative viability (LOU-NH91; first compound 0.1265 µM): 0.614
relative viability (LOU-NH91; first compound 0.4 µM): 0.513
relative viability (LOU-NH91; first compound 1.265 µM): 0.376
relative viability (LOU-NH91; first compound 4 µM): 0.366
relative viability (NCI-H1944; first compound 0.04 µM): 0.268
relative viability (NCI-H1944; first compound 0.1265 µM): 0.274
relative viability (NCI-H1944; first compound 0.4 µM): 0.261
relative viability (NCI-H1944; first compound 1.265 µM): 0.239
relative viability (NCI-H1944; first compound 4 µM): 0.235
relative viability (SK-MES-1; first compound 0.04 µM): 0.843
relative viability (SK-MES-1; first compound 0.1265 µM): 0.909
relative viability (SK-MES-1; first compound 0.4 µM): 0.833
relative viability (SK-MES-1; first compound 1.265 µM): 0.579
relative viability (SK-MES-1; first compound 4 µM): 0.158
relative viability (NCI-H23; first compound 0.04 µM): 0.337
relative viability (NCI-H23; first compound 0.1265 µM): 0.388
relative viability (NCI-H23; first compound 0.4 µM): 0.32
relative viability (NCI-H23; first compound 1.265 µM): 0.284
relative viability (NCI-H23; first compound 4 µM): 0.251
relative viability (NCI-H1755; first compound 0.04 µM): 0.602
relative viability (NCI-H1755; first compound 0.1265 µM): 0.589
relative viability (NCI-H1755; first compound 0.4 µM): 0.587
relative viability (NCI-H1755; first compound 1.265 µM): 0.512
relative viability (NCI-H1755; first compound 4 µM): 0.495
relative viability (EKVX; first compound 0.04 µM): 0.356
relative viability (EKVX; first compound 0.1265 µM): 0.396
relative viability (EKVX; first compound 0.4 µM): 0.374
relative viability (EKVX; first compound 4 µM): 0.286
relative viability (HCC-366; first compound 0.04 µM): 0.169
relative viability (HCC-366; first compound 0.1265 µM): 0.0937
relative viability (HCC-366; first compound 0.4 µM): 0.0774
relative viability (HCC-366; first compound 1.265 µM): 0.0436
relative viability (HCC-366; first compound 4 µM): 0.0402
relative viability (PC-3 [JPC-3]; first compound 0.04 µM): 0.954
relative viability (PC-3 [JPC-3]; first compound 0.1265 µM): 0.825
relative viability (PC-3 [JPC-3]; first compound 0.4 µM): 0.882
relative viability (PC-3 [JPC-3]; first compound 1.265 µM): 0.863
relative viability (PC-3 [JPC-3]; first compound 4 µM): 0.702

— the supplement of paper PMC10307832
